Assay results published in PMC3501490 (PLoS ONE, 2012).
Where no end group is shown, it is not given here. [ ]: non-standard residue; d: D form. pY = N[C@@H](Cc1ccc(OP(=O)(O)O)cc1)C(=O)O

What was measured:
[1] = system: washed human platelets (thrombin); experiment: Activation of TAT-peptide-loaded platelets, thrombin; assay type: cell-based; conditions: platelets loaded with 10 µM peptide, 15 min, 30°C; data not shown
Experimental: Whole blood was taken from healthy volunteers and collected into 50 ml syringes containing 5 ml acid citrate-dextrose (ACD) in accordance with procedures approved by the Local Research Ethics Committee (Ref: 07/Q1603/17). Platelet-rich plasma (PRP) was isolated by centrifugation at 200 g for 10 minutes at room temperature. PRP was pooled and 10 µg PGI2 was added before centrifugation at 1000 g for 10 minutes at room temperature. Platelets were resuspended in 1 ml Tyrodes buffer (134 mM NaCl, 0.34 mM Na2HPO4, 2.9 mM KCl, 12 mM NaHCO3, 20 mM HEPES, 5 mM glucose, 1 mM MgCl2, pH 7.3) pre-warmed to 30°C and 150 µl ACD. The volume was adjusted to 25 ml with Tyrodes buffer, followed by 3 ml ACD and 1.25 µg PGI2. […]
Fluorescein-labelled, TAT-G6B-b peptides were synthesised by Peptide Protein Research Ltd (Hampshire, U.K.). […] Peptides were loaded into washed platelets by incubation with 10 µM peptide for 15 minutes at 30°C, after which they were assessed by light transmission aggregometry. […]
Washed human platelets were loaded with TAT-G6B-b peptides (either dual phosphorylated or unphosphorylated) and changes in CRP efficacy determined by light transmission aggregometry. […]

[2] = system: washed human platelets (collagen); experiment: Light transmission aggregometry of TAT-peptide-loaded platelets, collagen; assay type: cell-based; conditions: for effect on EC50 / sensitivity to collagen: washed human platelets, TAT peptide loading
Experimental: (§1) Whole blood was taken from healthy volunteers and collected into 50 ml syringes containing 5 ml acid citrate-dextrose (ACD) in accordance with procedures approved by the Local Research Ethics Committee (Ref: 07/Q1603/17). Platelet-rich plasma (PRP) was isolated by centrifugation at 200 g for 10 minutes at room temperature. PRP was pooled and 10 µg PGI2 was added before centrifugation at 1000 g for 10 minutes at room temperature. Platelets were resuspended in 1 ml Tyrodes buffer (134 mM NaCl, 0.34 mM Na2HPO4, 2.9 mM KCl, 12 mM NaHCO3, 20 mM HEPES, 5 mM glucose, 1 mM MgCl2, pH 7.3) pre-warmed to 30°C and 150 µl ACD. The volume was adjusted to 25 ml with Tyrodes buffer, followed by 3 ml ACD and 1.25 µg PGI2. Cells were centrifuged at 1000 g for 10 minutes at room temperature and the resultant cell pellet was resuspended in 1 ml pre-warmed Tyrodes buffer before adjusting the volume to a final cell density of 4×10^8 cells/ml (aggregations) or 2×10^9 cells/ml (peptide pull downs). Where appropriate, 1 mM EGTA, 10 µM indomethacin and 2 U/ml apyrase were added to inhibit aggregations (referred to as non-aggregating conditions).
(§2) Fluorescein-labelled, TAT-G6B-b peptides were synthesised by Peptide Protein Research Ltd (Hampshire, U.K.). Peptides were either unphosphorylated, or phosphorylated at both ITIMs as follows: Dual phosphorylated peptide – FLUO- […]*[…]*AVVV or unphosphorylated control peptide (lacking tyrosine phosphorylation) - FLUO- […]. TAT sequences are underlined and phosphorylated tyrosines marked with an asterisk. Peptides were loaded into washed platelets by incubation with 10 µM peptide for 15 minutes at 30°C, after which they were assessed by light transmission aggregometry. Peptide loading conditions were optimised and verified by flow cytometry.
(§3) Washed human platelets were loaded with TAT-G6B-b peptides (either dual phosphorylated or unphosphorylated) and changes in CRP efficacy determined by light transmission aggregometry. […] Thrombin-mediated activation was unaffected (data not shown). […] Peptide loading was verified by flow cytometry (Figure 9C and 9D.

[3] = system: washed human platelets (CRP); experiment: Light transmission aggregometry of TAT-peptide-loaded platelets, CRP; assay type: cell-based; conditions: for effect on EC50 / sensitivity to CRP: washed human platelets, TAT peptide loading
Experimental: as §1, §2, §3

[4] = target: T1, SHP-2 tandem (N+C) SH2 domains (Homo sapiens, UniProt Q06124); experiment: SPR (BIAcore 3000), SHP-2 tandem (N+C) SH2 domains; assay type: binding; conditions: kinetic (koff/kon), single site model, HBS pH 7.4, 37°C, 50 µl/min, mean, n = 5, SEM
T1 construct: SHP-2 (N+C)SH2 domains (His-tag) (3911); His-tag; host or cells: E. coli BL21(DE3)
T1 sequence (Q06124 1-216 limits assumed): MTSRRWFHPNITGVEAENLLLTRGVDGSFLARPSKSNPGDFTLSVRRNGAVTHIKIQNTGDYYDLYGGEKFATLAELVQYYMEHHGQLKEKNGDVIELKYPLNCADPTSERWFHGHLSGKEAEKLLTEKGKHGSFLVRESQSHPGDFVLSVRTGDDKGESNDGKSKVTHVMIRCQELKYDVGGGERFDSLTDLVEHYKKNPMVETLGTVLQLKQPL
T1 sequence (O95866 182-241 partner limits assumed): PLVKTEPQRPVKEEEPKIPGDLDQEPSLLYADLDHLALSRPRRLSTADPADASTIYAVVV
Experimental: Experiments were conducted on a BIAcore™ 3000 in HBS buffer (0.01 M HEPES, pH 7.4, containing 0.15 M NaCl, 3 mM EDTA, and 0.005% v/v P-20, GE Life Sciences, Amersham, UK). Streptavidin was coupled to a research grade CM5 chip (GE Life Sciences, Amersham, UK) as previously described [12], [13]. Protein-peptide interactions were carried out a rate of 10 µl/min at a constant temperature of 37°C to more accurately reflect physiological conditions. Biotinylated peptides were bound to the streptavidin-coated CM5 chips at 37°C to between 25–50 RU [14]. Purified monomeric SH2 domains were passed over the immobilised peptides at a range of concentrations. Anti-phosphotyrosine monoclonal antibody (Sigma, Poole, U.K.) was passed over the chip to saturation at the end of each experiment to verify peptide coverage on the chip. Binding affinities for the single ITIM/ITSM peptides were determined by plotting equilibrium binding measurements (RU) against SH2 domain protein concentration (Origin 8, OriginLab, MA, USA). […] For the 60-mer peptides, SH2 domains were passed over the chip surface at 50 µl/min. KD was determined as Koff/Kon, which were determined using both GraphPad Prism 5.0 (GraphPad, La Jolla, CA, USA) and BIAevaluation Software (GE Life Sciences, Amersham,UK).
We kinetically determined the binding affinity (KD = koff/kon) by SPR at physiological temperatures.

[5] = target: T2, SHP-1 tandem (N+C) SH2 domains (Homo sapiens, UniProt P29350); experiment: SPR (BIAcore 3000), SHP-1 tandem (N+C) SH2 domains; assay type: binding
T2 construct: host or cells: E. coli BL21(DE3)
T2 sequence (P29350 1-213 limits assumed): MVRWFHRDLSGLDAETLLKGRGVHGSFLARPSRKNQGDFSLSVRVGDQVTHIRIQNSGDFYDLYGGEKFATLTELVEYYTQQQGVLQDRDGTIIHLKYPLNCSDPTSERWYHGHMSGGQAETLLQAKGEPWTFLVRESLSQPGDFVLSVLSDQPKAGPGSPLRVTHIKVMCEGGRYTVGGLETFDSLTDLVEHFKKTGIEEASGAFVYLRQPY
T2 sequence (O95866 182-241 partner limits assumed): T1 sequence (O95866 182-241 partner limits assumed)
Experimental: (§4) These proteins were expressed in BL21(DE3) cells (Invitrogen) induced with 1 mM IPTG for 4 hours at 37°C. Bacteria were pelleted and washed in PBS/0.5 M NaCl prior to sonication in PBS/0.5 M NaCl, in the presence of protease inhibitor cocktail (Complete, EDTA-free, Roche). Soluble and insoluble fractions were separated by centrifugation at 30,000 g for 60 minutes. Soluble fractions containing tagged proteins were incubated for 1 hour at 4°C with end-over-end mixing in the presence of washed Ni-Sepharose (GE Lifesceinces, Little Chalfont, U.K.) supplemented with 40 mM imidazole or Amylose resin (NEB, Herts, U.K). Proteins were eluted according to the manufacturer's instructions and purified by size exclusion chromatography on an AKTApurifier (GE Lifesciences, Little Chalfont, U.K).
Experiments were conducted on a BIAcore™ 3000 in HBS buffer (0.01 M HEPES, pH 7.4, containing 0.15 M NaCl, 3 mM EDTA, and 0.005% v/v P-20, GE Life Sciences, Amersham, UK). […] Binding affinities for the single ITIM/ITSM peptides were determined by plotting equilibrium binding measurements (RU) against SH2 domain protein concentration (Origin 8, OriginLab, MA, USA). […] KD was determined as Koff/Kon, which were determined using both GraphPad Prism 5.0 (GraphPad, La Jolla, CA, USA) and BIAevaluation Software (GE Life Sciences, Amersham,UK). […]

Syk = target: T3, Syk (Homo sapiens, UniProt P43405); experiment: SPR (BIAcore 3000), Syk SH2 domains; assay type: binding; conditions: HBS pH 7.4, 37°C, n = 3
T3 construct: made in house
Experimental: Experiments were conducted on a BIAcore™ 3000 in HBS buffer (0.01 M HEPES, pH 7.4, containing 0.15 M NaCl, 3 mM EDTA, and 0.005% v/v P-20, GE Life Sciences, Amersham, UK). Streptavidin was coupled to a research grade CM5 chip (GE Life Sciences, Amersham, UK) as previously described, [13]. Protein-peptide interactions were carried out a rate of 10 µl/min at a constant temperature of 37°C to more accurately reflect physiological conditions. Biotinylated peptides were bound to the streptavidin-coated CM5 chips at 37°C to between 25–50 RU [14]. Purified monomeric SH2 domains were passed over the immobilised peptides at a range of concentrations. Anti-phosphotyrosine monoclonal antibody (Sigma, Poole, U.K.) was passed over the chip to saturation at the end of each experiment to verify peptide coverage on the chip. Binding affinities for the single ITIM/ITSM peptides were determined by plotting equilibrium binding measurements (RU) against SH2 domain protein concentration (Origin 8, OriginLab, MA, USA). KD was defined as the concentration of SH2 protein that gave half maximal binding to the peptide. For the 60-mer peptides, SH2 domains were passed over the chip surface at 50 µl/min. KD was determined as Koff/Kon, which were determined using both GraphPad Prism 5.0 (GraphPad, La Jolla, CA, USA) and BIAevaluation Software (GE Life Sciences, Amersham,UK). […]

[6] = target: T4, N-terminal SH2 domain of SHP-2 (Homo sapiens, UniProt Q06124); experiment: SPR (BIAcore 3000), single N-terminal SH2 domain of SHP-2; assay type: binding; conditions: equilibrium binding, single site fitting, HBS pH 7.4, 37°C, 10 µl/min, read-out: KD
T4 construct: SHP-2 (N)SH2 (His-tag) (OMC #3912); His-tag; host or cells: E. coli BL21(DE3)
T4 sequence (Q06124 6-102 limits assumed): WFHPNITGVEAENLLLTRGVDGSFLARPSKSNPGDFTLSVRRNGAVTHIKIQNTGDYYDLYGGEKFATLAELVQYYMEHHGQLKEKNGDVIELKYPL
Experimental: as §4
Experiments were conducted on a BIAcore™ 3000 in HBS buffer (0.01 M HEPES, pH 7.4, containing 0.15 M NaCl, 3 mM EDTA, and 0.005% v/v P-20, GE Life Sciences, Amersham, UK). Streptavidin was coupled to a research grade CM5 chip (GE Life Sciences, Amersham, UK) as previously described, [13]. Protein-peptide interactions were carried out a rate of 10 µl/min at a constant temperature of 37°C to more accurately reflect physiological conditions. Biotinylated peptides were bound to the streptavidin-coated CM5 chips at 37°C to between 25–50 RU [14]. Purified monomeric SH2 domains were passed over the immobilised peptides at a range of concentrations. Anti-phosphotyrosine monoclonal antibody (Sigma, Poole, U.K.) was passed over the chip to saturation at the end of each experiment to verify peptide coverage on the chip. Binding affinities for the single ITIM/ITSM peptides were determined by plotting equilibrium binding measurements (RU) against SH2 domain protein concentration (Origin 8, OriginLab, MA, USA). KD was defined as the concentration of SH2 protein that gave half maximal binding to the peptide. […] KD was determined as Koff/Kon, which were determined using both GraphPad Prism 5.0 (GraphPad, La Jolla, CA, USA) and BIAevaluation Software (GE Life Sciences, Amersham,UK).

SHP-1 = experiment: Peptide pull down from platelet lysate, SHP-1; assay type: binding; conditions: human platelet lysate, Western blotting; 4°C, 30 min; n = 3
Experimental: (§5) Forty micrograms of peptide were coupled to 50 µl of Streptactin beads (50% slurry) for 30 minutes at 4°C with end-over-end mixing, washed twice with 1 ml PBS and resuspended in 100 µl of modified Tyrodes buffer. Platelets were resuspended in modified Tyrodes buffer at a concentration of 2×10^9 cells/ml under non-aggregating conditions (10 µM indomethacin, 1 mM EGTA and 2 U/ml apyrase). Cells were activated with 1 ug/ml CRP for 90 seconds under stirring, but non-aggregating conditions, before reactions were terminated by the addition of 500 µl 2× NP40 lysis buffer (150 mM NaCl, 10 mM Tris pH 7.5, 1 mM EGTA, 1 mM EDTA, 1% NP-40) with inhibitors (Roche Complete mini protease inhibitor cocktail, 5 mM NaF, 5 mM NaVO4, 250 nM beta-glycerophosphate) and placed on ice. Lysates were pooled and pre-cleared as a batch with 200 µl streptactin beads (50% slurry). Non-specific interactions were then removed by centrifugation at 4,750 g for 15 minutes at 4°C. Pre-cleared lysates were incubated with 50 µl peptide/bead conjugate (50% slurry) at 4°C for 30 minutes with end-over-end mixing. […]
(§6) Although likely that these interactions are direct, this has not yet been conclusively shown. […] Peptide associated material was separated by SDS-PAGE and assessed for the presence of SHP-1 and SHP-2 by Western blotting, both of which were clearly identified (Figure 1C).

SHP-2 = experiment: Peptide pull down from platelet lysate, SHP-2; assay type: binding; conditions: human platelet lysate, Western blotting; 4°C, 30 min; n = 3
Experimental: as §5, §6

[7] = 10 µM peptide, 15 min, 30°C, vs vehicle control
[8] = listed as G6B-b dual phosphorylated peptide

## FLUO- GRKKRRQRRRPQDLDQEPSLLY*ADLDHLALSRPRRLSTADPADASTIY*AVVV [dual phosphorylated G6B-b TAT-peptide, Fluorescein-labelled TAT-G6B-b peptide phosphorylated at both ITIMs]
[1]
  thrombin-mediated activation: unaffected
[2]; [7]
  fold increase in EC50 of collagen: 2.5 fold
[2]
  effect on EC50 / sensitivity to collagen: can reduce the EC50 for both CRP and collagen
[2]; [8]
  effect on EC50 / sensitivity to collagen: reduces platelet sensitivity to GPVI agonists
[3]; [7]
  fold increase in EC50 of CRP: ~1.65 fold
[3]
  effect on EC50 / sensitivity to CRP: can reduce the EC50 for both CRP and collagen
[3]; [8]
  effect on EC50 / sensitivity to CRP: reduces platelet sensitivity to GPVI agonists

## PLVKTEPQRPVKEEEPKIPGDLDQEPSLL[pY]ADLDHLALSRPRRLSTADPADASTI[pY]AVVV [dual phosphopeptide]
[4]
  Kd: 0.48 ± 0.09 nM
[5]; 37°C, dual peptide, read-out: Koff (dissociation rate)
  Koff: 0.01 s⁻¹
[5]; kinetic (koff/kon), single site model, HBS pH 7.4, 37°C, 50 µl/min, mean, n = 5, SEM, read-out: binding affinity (KD)
  Kd: 35.3 ± 4.3 nM
Syk
  Kd: ~25000 nM
[6]
  Kd: 130 nM

## unphosphorylated control peptides: biotinylated 60-mer G6B-b peptide (182 to 241), unphosphorylated (PLVKTEPQRPVKEEEPKIPGDLDQEPSLLYADLDHLALSRPRRLSTADPADASTIYAVVV; also: biotinylated (end not given here))
SHP-1
  association: No SHP-1 or SHP-2 bound
SHP-2
  association: No SHP-1 or SHP-2 bound
